# From patent publication US20060121449A1, “Method for selection of compounds which inhibit clonal cell growth and use thereof” (priority 2002, published 2006)
# Entries after “also recorded” stand apart in the source; their conditions may differ.
# How the values were obtained:
# [1] = test system: Ehrlich ascites cells injected subcutaneously; assay: Subcutaneously transplanted Ehrlich cells in mice, export of metastatic cells (Exp 9); details: for Export (migration) of subcutaneously injected Ehrlich cells to peritoneum in treated animals / Solid tumours at subcutaneous injection sites: Exp 9; for Export (migration) of subcutaneously injected Ehrlich cells to peritoneum in treated animals: i.p. injections twice a week, untreated control developed ascites only
# Protocol: This assay involves different numbers of Ehrlich carcinoma cells injected in six subcutaneous locations of mice that were treated by intraperitoneal injections of the compound tested, e.g. 4-OH-OPB (experiment number 9). […] When operating with different cell numbers in the different injection sites, the number of growing tumours indicated which cell number that is necessary for the development of tumours in treated or untreated animals.
# Ehrlich ascites was stored in liquid nitrogen on serum with 10% DMSO. The ampoules were thawed in water of 37° C., diluted in serum, and pelleted by low speed centrifugation after the addition of 2 ml FBS, to remove DMSO.
# The cells were diluted in volumes of 0.6 ml RPM (pH about 6.9) for each animal with no serum added. The 4-OH-OPB was injected intraperitonally twice a week, see Table 2.
# [2] = test system: S100T1 cell strain (polyoma virus transformed BHK21/c13); assay: Surface growth (degree of confluence) of S100T1 cells on plastic (Exp 5); assay type: cell-based, hamster; details: 2-4 days
# Description: (§1) The degree of confluence of polyoma virus transformed BHK21/c13 cells, the S100T1 cell strain, growing on plastic surface was observed 2-4 days after seeding 3000 or […] cells in appropriate wells of a 96 well tissue culture plate (Nunc).
# [3] = test system: BHK21/c13 (normal baby hamster kidney cells); assay: Clonal growth of normal BHK21/c13 cells in soft agar with growth factors (Exp 3, 6); assay type: cell-based; set-up: Clonal inhibition: unit not given here; details: for Clonal inhibition: BHK21/c13 + insulin
# Protocol: This experiment used BHK21/c13 cells grown in the Falcon plates with 24 wells. Each well received 120000 cells seeded in a top layer of 0.3 ml with 0.8% ultra low gelling temperature agarose (type IX, Sigma). This layer was placed upon a 0.3 ml bottom layer with 3% of the same agarose. The medium contained Eagles MEM and RPMI 1640 with 10% foetal bovine serum. The medium was supplemented with either: 15% conditioned medium (from BHK21/c13 cultures), the serum extender Mito+ or 0.1 i.u. Insulin Actrapid (Novo) or with two or all three of these in combination.
# Agar cultures were prepared in wells of 24 well Falcon tissue culture plate. […] The medium contained about equal amounts of Eagle and RPMI 1640 with 10% FBS. Insulin (Actrapid, Novo) was added in a concentration of 0.1 i.u./ml to BHK21/c13 cell cultures only.
# HSV1 = HSV1 replication and cytopathogenicity in RK13 cells (Exp 11a, 11b); assay type: cell-based, Herpes virus type 1; details: for Coverage of the bottom read after 2 days / Cytopathogenicity read after 2 days: 11b, HSV 2 μl/well; for Coverage of the bottom read after 2 days: 1 g = 100% coverage of the bottom; for Cytopathogenicity read after 2 days: 1d is 100% degeneration
# Protocol: RK13 cells and HSV1 v:11252 was obtained from Dr. G. Hoddevik, National Institute of Public Health, Oslo, Virus had been stored at −75° C.
# The inoculated virus was not removed before the titration in the last experiment. This time, however, removal of inoculate was performed next day.
# HSV-1 was added undiluted, but 4-OH-OPB was diluted in 50 μl medium. The row seeded with 2000 nl of HSV was titrated and read after 4 days:
# This time the inhibition is 10 times better than before. The difference from 1st time was that the day after infecting cell cultures the medium was changed in order to get rid of remaining active HSV. In addition the original HSV 1 infected and treated cultures were incubated one day more, for 48 hours. The production of virus is then measured in titration of 4-fold dilution steps.
# MT4 cells = assay: Clonal growth of MT4 cells in fluid medium, cross dilution of cells and inhibitor (Exp 14); assay type: cell-based
# Protocol: Ten fold cell dilutions indicatet in the last row (Table 1) were undertaken in Falcon tissue culture tray using 6×6 wells.
# The 4-OH-OPB dilutions were prepared minutes before being used from 20 mM stock solution in DMSO.
# The 10 μM and 3 μM dilutions were made first and each of them were diluted further in 1/10 steps.
# BHK21/c13 cells = assay: Surface growth (degree of confluence) of BHK21/c13 cells on plastic (Exp 5); assay type: cell-based, hamster; details: for Concentration giving about full inhibition of growth on surface: 2-4 days
# Description: as §1
# [4] = Exp 9 mouse 1: 10.5 μl 0.2 M i.p. (est. extracell. conc. 281)
# [5] = Exp 9 mouse 1: 10.5 μl 0.2 M i.p. twice a week (est. extracell. conc. 281)
# [6] = Exp 9 mouse 3: 9.6 μl 20 mM i.p. (27.9)
# [7] = Exp 9 mouse 3: 9.6 μl 20 mM i.p. twice a week (27.9)
# [8] = Exp 9 mouse 4: 1.37 μl 20 mM i.p. (2.8)
smiles,measurement,setting,value
"CCCCC1(O)C(=O)N(c2ccccc2)N(c2ccc(O)cc2)C1=O (centres unmarked) [4-OH-OPB, 4-butyl-4-hydroxy-2(p-hydroxyphenyl)-1-phenyl-3,5-pyrazolidinedione]",Export (migration) of subcutaneously injected Ehrlich cells to peritoneum in treated animals,[1],"did not get ascites with tumour cells, only solid tumours; also recorded: no spread of tumour cells from these subcutaneous injection sites were found in peritoneum; also recorded: effective in stopping migration of tumour cells to peritoneum; also recorded: None of the treated ones got ascites"
same,Export (migration) of subcutaneously injected Ehrlich cells to peritoneum in treated animals,[1]; listed as 4-OH—OPB,Found inhibition on metastatic
same,Solid tumours at subcutaneous injection sites,[1]; the two mice receiving smaller doses,only one tumour
same,Solid tumours at subcutaneous injection sites,"[1]; very high dose mouse, sites with 6250 and 31250 cells",two tumours of the abdominal wall
same,Toxic effects of the very high dose,[1]; Exp 9 mouse 1: 10.5 μl 0.2 M i.p.,"caused adherences in peritoneum; also recorded: liver, spleen and possibly kidneys became affected by its toxicity; also recorded: died of haemorrhagic effusion in thorax"
same,"Day 21, pathology",[1]; [4],Ascites
same,Pathology after 24 days,[1]; [4],Ascites or thoracic fluid did not contain Ehrlich cells
same,Pathology after 24 days,"[1]; Exp 9 mouse 1: 10.5 μl 0.2 M i.p. (est. extracell. conc. 281), listed as 4-OH—OPB",number developed solid tumours; also recorded: Toxic ascites and thoracic
same,"Clinical status, day 14",[1]; [5],No Ehrlich
same,"Day 3-7, clinical status",[1]; [5],no tumour
same,"Weight, day 18","[1]; Exp 9 mouse 1: 10.5 μl 0.2 M i.p. twice a week, initial weight 26.2",37.4 g
same,Animal weight after 24 days,"[1]; Exp 9 mouse 1: 10.5 μl 0.2 M i.p., initial weight 26.2",40.2 g
same,"Day 21, pathology",[1]; [6],Lens sized
same,Pathology after 24 days,[1]; [6],Ascites or organ tumours were not found
same,Pathology after 24 days,"[1]; Exp 9 mouse 3: 9.6 μl 20 mM i.p. (27.9), listed as 4-OH—OPB",Pea sized tumour in left
same,"Clinical status, day 14",[1]; [7],No tumour
same,"Clinical status, day 18",[1]; [7],No tumour
same,Animal weight after 24 days,"[1]; Exp 9 mouse 3: 9.6 μl 20 mM i.p., initial weight 24.1",25 g
same,"Day 21, pathology",[1]; [8],Small tumour
same,Pathology after 24 days,[1]; [8],slightly observable tumour in the abdominal wall
same,Pathology after 24 days,"[1]; Exp 9 mouse 4: 1.37 μl 20 mM i.p. (2.8), listed as 4-OH—OPB","days ago, now lens sized."
same,Animal weight after 24 days,"[1]; Exp 9 mouse 4: 1.37 μl 20 mM i.p., initial weight 34.2",33.5 g. Tumour as discovered 3
same,Estimated concentration in extracellular fluid at which serious toxicity occurs,[1]; extracellular fluid calculated as 2/7 of the animal weight,280 µM
same,Concentration giving about full inhibition of growth on surface,[2]; 3000 S100T1 cells/well,1 µM
same,Concentration giving about full inhibition of growth on surface,[2]; 10000 S100T1 cells/well,3 µM
same,Clonal inhibition,"[3]; 0.3 μM added after 24 hours, read after 48 hours",0
same,Clonal inhibition,"[3]; 0.3 μM added immediately, read after 24 hours",0
same,Clonal inhibition,"[3]; 0.3 μM added immediately, read after 48 hours",0
same,Clonal inhibition,"[3]; 1 μM added after 24 hours, read after 48 hours",0
same,Clonal inhibition,"[3]; 1 μM added immediately, read after 24 hours",0
same,Clonal inhibition,"[3]; 1 μM added immediately, read after 48 hours",0
same,Clonal inhibition,"[3]; 3 μM added after 24 hours, read after 48 hours",0
same,Clonal inhibition,"[3]; 3 μM added immediately, read after 24 hours",0
same,Clonal inhibition,"[3]; 3 μM added immediately, read after 48 hours",0
same,Clonal inhibition,"[3]; 10 μM added after 24 hours, read after 48 hours",0
same,Clonal inhibition,"[3]; 10 μM added immediately, read after 24 hours",+
same,Clonal inhibition,"[3]; 10 μM added immediately, read after 48 hours",+
same,Clonal inhibition,"[3]; 30 μM added after 24 hours, read after 48 hours",0
same,Clonal inhibition,"[3]; 30 μM added immediately, read after 24 hours",+++
same,Clonal inhibition,"[3]; 30 μM added immediately, read after 48 hours",++
same,Effect when treated first after 24 hours,"[3]; Exp 6, BHK21/c13",no effect was detected
same,"Concentration with small, but significant effect on clonal inhibition","[3]; Exp 6, BHK21/c13, treated immediately on seeding, photograph after 24 hours",≥ 10 µM
same,Coverage of the bottom read after 2 days,HSV1; 0.1 μM,1 g
same,Cytopathogenicity read after 2 days,HSV1; 0.1 μM,0.28 days
same,Cytopathogenicity read after 2 days,HSV1; 0.3 μM,0.28 days
same,Coverage of the bottom read after 2 days,HSV1; 10 μM,0.4 g
same,Cytopathogenicity read after 2 days,HSV1; 30 μM,0 days
same,Concentration found to inhibit satisfactorily,"HSV1; Exp 11b, new medium after 24 hours, titrated after 48 hours",1 µM
same,Concentration needed for arresting colony growth: less in cultures with 5000 cells than with 500000 cells,MT4 cells,about 2 logs
same,"Concentration needed for total inhibition of surface growth, BHK21/c13 compared to S100T1",BHK21/c13 cells,about 3 times
same,Growth on surface with 100 and 300 nM after 4 days,BHK21/c13 cells; 3000 BHK21/c13 cells/well,growth inhibition compared to the control
same,Concentration giving about full inhibition of growth on surface,BHK21/c13 cells; 3000 BHK21/c13 cells/well,3 µM
same,Concentration giving about full inhibition of growth on surface,BHK21/c13 cells; 10000 BHK21/c13 cells/well with 0.1 i.u./ml insulin,10 µM
